Results reported in patent publication US10745388B2, “Indazole compounds and uses thereof” (Incyte Corporation, priority 2018, dated 2020).

The compounds below were run against HPK1 (Homo sapiens (Human), UniProt Q92918) (assay: HPK1 Kinase Binding Assay). Conditions: LanthaScreen tracer 222 binding, active HPK1, one hour incubation at 25° C.
Protocol: A stock solution of 1 mM test compound was prepared in DMSO. The compound plate was prepared by 3-fold and 11-point serial dilutions. 0.1 μL of the compound in DMSO was transferred from the compound plate to the white 384 well polystyrene plates. The assay buffer contained 50 mM HEPES, pH 7.5, 0.01% Tween-20, 5 mM MgCl2, 0.01% BSA, and 5 mM DTT. 5 μL of 4 nM active HPK1 (SignalChem M23-11G) prepared in the buffer was added to the plate. The enzyme concentration given was based on the given stock concentration reported by the vender. 5 μL of 18 nM tracer 222 (ThermoFisher PV6121) and 4 nM LanthaScreen Eu-Anti GST antibody (ThermoFisher PV5595) were added. After one hour incubation at 25° C., the plates were read on a PHERAstar FS plate reader (BMG Labtech). Ki values were determined.

Chain of HPK1 (Q92918 1-346 limits assumed): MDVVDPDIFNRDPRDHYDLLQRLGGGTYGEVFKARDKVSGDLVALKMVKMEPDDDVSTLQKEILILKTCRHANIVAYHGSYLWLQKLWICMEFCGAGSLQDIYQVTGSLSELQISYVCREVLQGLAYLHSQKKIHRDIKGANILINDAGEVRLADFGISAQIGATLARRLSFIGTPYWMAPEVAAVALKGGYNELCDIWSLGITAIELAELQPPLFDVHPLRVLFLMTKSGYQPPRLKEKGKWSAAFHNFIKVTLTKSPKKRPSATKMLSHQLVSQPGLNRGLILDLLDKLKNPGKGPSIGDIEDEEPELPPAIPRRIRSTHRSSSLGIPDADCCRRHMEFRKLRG

Row | SMILES | Ki
1 | COc1cccc(F)c1-c1nccc(C(=O)Nc2ccc3c(cnn3C)c2N(C)[C@H]2CCN(C(=O)N(C)C)C2)n1 [Example 14, (S)—N-(4-((1-(Dimethylcarbamoyl)pyrrolidin-3-yl)(methyl)amino)-1-methyl-1H-indazol-5-yl)-2-(2-fluoro-6-methoxyphenyl)pyrimidine-4-carboxamide] | ≤ 0.1 µM
2 | COc1cccc(F)c1-c1nccc(C(=O)Nc2ccc3c(cnn3C)c2N(C)C2CC2)n1 [Example 3, N-(4-(Cyclopropyl(methyl)amino)-1-methyl-1H-indazol-5-yl)-2-(2-fluoro-6-methoxyphenyl)pyrimidine-4-carboxamide] | ≤ 0.1 µM
3 | COc1cccc(F)c1-c1nccc(C(=O)Nc2ccc3c(cnn3C)c2N(C)CC2(O)COC2)n1 [Example 10, 2-(2-Fluoro-6-methoxyphenyl)-N-(4-(((3-hydroxyoxetan-3-yl)methyl)(methyl)amino)-1-methyl-1H-indazol-5-yl)pyrimidine-4-carboxamide] | 0.5 to 5 µM
4 | COc1cccc(F)c1-c1nccc(C(=O)Nc2ccc3c(cnn3C)c2N(C)C)n1 [Example 4, N-(4-(Dimethylamino)-1-methyl-1H-indazol-5-yl)-2-(2-fluoro-6-methoxyphenyl)pyrimidine-4-carboxamide] | ≤ 0.1 µM
5 | CNCc1ccccc1-c1c(NC(=O)c2ccnc(-c3c(F)cccc3OC)n2)ccc2c1cnn2C [Example 15, 2-(2-Fluoro-6-methoxyphenyl)-N-(1-methyl-4-(2-((methylamino)methyl)phenyl)-1H-indazol-5-yl)pyrimidine-4-carboxamide] | ≤ 0.1 µM
6 | COc1cccc(F)c1-c1nccc(C(=O)Nc2ccc3nn(C)cc3c2N(C)CCO)n1 [1, Peak 1] | ≤ 0.1 µM
7 | COc1cccc(F)c1-c1nccc(C(=O)Nc2ccc3c(cnn3C)c2N(C)CC(C)(C)O)n1 [Example 8, 2-(2-Fluoro-6-methoxyphenyl)-N-(4-((2-hydroxy-2-methylpropyl)(methyl)amino)-1-methyl-1H-indazol-5-yl)pyrimidine-4-carboxamide] | ≤ 0.1 µM
8 | COc1cccc(F)c1-c1nccc(C(=O)Nc2ccc3c(cnn3C)c2N(C)C2CCN(C)CC2)n1 [Example 2, 2-(2-Fluoro-6-methoxyphenyl)-N-(1-methyl-4-(methyl(1-methylpiperidin-4-yl)amino)-1H-indazol-5-yl)pyrimidine-4-carboxamide] | ≤ 0.1 µM
9 | COc1cccc(F)c1-c1nccc(C(=O)Nc2ccc3c(cnn3C)c2N(C)C2CCOCC2)n1 [Example 7] | ≤ 0.1 µM

Other lines, results leading:

Row | Ki | SMILES
10 | ≤ 0.1 µM | COc1cccc(F)c1-c1nccc(C(=O)Nc2ccc3c(cnn3C)c2N(C)Cc2cccnc2)n1 [Example 6, 2-(2-Fluoro-6-methoxyphenyl)-N-(1-methyl-4-(methyl(pyridin-3-ylmethyl)amino)-1H-indazol-5-yl)pyrimidine-4-carboxamide]
11 | ≤ 0.1 µM | COc1cccc(F)c1-c1nccc(C(=O)Nc2ccc3c(cnn3C)c2N(C)[C@H]2CCNC2)n1 [Example 11, (S)-2-(2-Fluoro-6-methoxyphenyl)-N-(1-methyl-4-(methyl(pyrrolidin-3-yl)amino)-1H-indazol-5-yl)pyrimidine-4-carboxamide]
12 | ≤ 0.1 µM | COc1cccc(F)c1-c1nccc(C(=O)Nc2ccc3c(cnn3C)c2N(C)[C@H]2CCN(C(C)=O)C2)n1 [Example 12, (S)—N-(4-((1-acetylpyrrolidin-3-yl)(methyl)amino)-1-methyl-1H-indazol-5-yl)-2-(2-fluoro-6-methoxyphenyl)pyrimidine-4-carboxamide]
13 | ≤ 0.1 µM | COc1cccc(F)c1-c1nccc(C(=O)Nc2ccc3c(cnn3C)c2N(C)[C@H]2CCN(S(C)(=O)=O)C2)n1 [Example 13, (S)-2-(2-Fluoro-6-methoxyphenyl)-N-(1-methyl-4-(methyl(1-(methylsulfonyl)pyrrolidin-3-yl)amino)-1H-indazol-5-yl)pyrimidine-4-carboxamide]
14 | ≤ 0.1 µM | COc1cccc(F)c1-c1nccc(C(=O)Nc2ccc3c(cnn3C)c2N(C)Cc2ccccc2)n1 [Example 5, N-(4-(Benzyl(methyl)amino)-1-methyl-1H-indazol-5-yl)-2-(2-fluoro-6-methoxyphenyl)pyrimidine-4-carboxamide]
15 | ≤ 0.1 µM | COc1cccc(F)c1-c1nccc(C(=O)Nc2ccc3c(cnn3C)c2N(C)CC2CCCO2)n1 (stereo not drawn) [Example 9, 2-(2-Fluoro-6-methoxyphenyl)-N-(1-methyl-4-(methyl((tetrahydrofuran-2-yl)methyl)amino)-1H-indazol-5-yl)pyrimidine-4-carboxamide]
